pIC50: −log10 of the molar value.
Columns and labels:
CYP3A12 = CYP3A12 (Canis lupus familiaris, UniProt P24463); assay: CYP3A12 activity inhibition in pooled dog liver microsomes
Method: (§1) Inhibition potency (i.e. IC50) is determined by measuring the decrement in metabolism of P450-specific marker activities in pooled dog liver microsomes with increasing concentrations of CBD, CBDA, and hemp extracts. P450-specific markers include bupropion 6-hydroxylation (CYP2B11), dextromethorphan 0-demethylation (CYP2D15) and omeprazole sulfoxidation (CYP3A12). IC50 values are determined both with and without preincubation of liver microsomes with potential inhibitor to evaluate whether there is mechanism-based time-dependent inhibition.
(§2) The following parameters are assessed: (1) the rates of CBD and CBDA metabolism by dog liver microsomes and by 11 recombinant canine P450 enzymes; (2) the predicted percent contribution of each P450 to total CBD and CBDA metabolism in dog liver; and (3) IC50 values for inhibition of CYP2B11, CYP2D15 and CYP3A12 metabolism in dog liver, both with and without inhibitor preincubation.
(§3) FIGS. 13-15 show activity assays for CYP3A12 (FIGS. 13A and 13B), CYP2B11 (FIGS. 14A and 14B), and CYP2D15 (FIGS. 15A and 15B). Assays using either no preincubation (FIGS. 13A, 14A, and 15A) or 20 minutes of preincubation (FIGS. 13B, 14B, and 15B) were performed.

D17 cells = assay: Trypan blue exclusion assay, D17; type: cell-based, canine; conditions: 48 hours, vehicle control 5±1%
Method: The trypan blue exclusion assay is performed on canine primary dermal fibroblasts (CDF) because of the slow rate of proliferation and low metabolic activity of these normal canine cells, precluding productive MTT assays. The effects of CBD treatments are compared with the results obtained on the 17-71, CMT12 and D17 cell lines for comparative purposes. For the CDF cells, applied cell extracellular matrix (ABM) is applied overnight to 24-well tissue culture-treated plates (Applied Biological Materials [ABM], Richmond, BC, Canada). For all cell lines, cells are plated at a density of 5×10^3 cells per well and incubated until 60% confluent before treatment with methanol vehicle control, 3.75, 7.5, and 15 μg/mL of CBD to cells for 48 hours. Cells are then trypsinized, collected and centrifuged at 1900 g for 10 minutes. With the exception of the 17-71 cell line, cells are detached with Accumax (Invitrogen, Carlsbad, California). The cell pellet is resuspended in 0.1% trypan blue (Sigma Aldrich, St Louis, Missouri) in PBS solution, loaded on a Cell Countess disposable cell counting slide with automatic counting of all positively stained cells in the Countess II Cell Counter under identical settings for each cell line (Invitrogen; ThermoFisher Scientific, Carlsbad, California) using the same parameters for each cell line. All treatments are performed in triplicate and the percent of viable cells are averaged.

CYP2B11 = molecular target: T1, CYP2B11 (Canis lupus familiaris, UniProt P24460); assay: CYP2B11 activity inhibition in pooled dog liver microsomes
T1 sequence (P24460 1-494): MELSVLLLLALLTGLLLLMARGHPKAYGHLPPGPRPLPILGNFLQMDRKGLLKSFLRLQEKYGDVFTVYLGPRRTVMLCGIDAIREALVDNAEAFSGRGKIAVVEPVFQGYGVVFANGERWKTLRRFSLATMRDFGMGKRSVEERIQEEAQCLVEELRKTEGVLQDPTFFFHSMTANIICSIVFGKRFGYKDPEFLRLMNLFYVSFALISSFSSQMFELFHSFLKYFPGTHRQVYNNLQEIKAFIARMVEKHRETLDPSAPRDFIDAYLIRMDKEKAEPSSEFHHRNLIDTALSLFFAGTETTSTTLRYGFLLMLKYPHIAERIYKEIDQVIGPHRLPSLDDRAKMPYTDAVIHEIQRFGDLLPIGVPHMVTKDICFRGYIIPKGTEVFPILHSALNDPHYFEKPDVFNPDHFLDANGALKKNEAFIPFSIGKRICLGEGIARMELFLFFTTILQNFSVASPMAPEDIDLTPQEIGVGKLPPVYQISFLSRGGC
Method: as §1, §2, §3

Chain of CYP3A12 (P24463 whole entry): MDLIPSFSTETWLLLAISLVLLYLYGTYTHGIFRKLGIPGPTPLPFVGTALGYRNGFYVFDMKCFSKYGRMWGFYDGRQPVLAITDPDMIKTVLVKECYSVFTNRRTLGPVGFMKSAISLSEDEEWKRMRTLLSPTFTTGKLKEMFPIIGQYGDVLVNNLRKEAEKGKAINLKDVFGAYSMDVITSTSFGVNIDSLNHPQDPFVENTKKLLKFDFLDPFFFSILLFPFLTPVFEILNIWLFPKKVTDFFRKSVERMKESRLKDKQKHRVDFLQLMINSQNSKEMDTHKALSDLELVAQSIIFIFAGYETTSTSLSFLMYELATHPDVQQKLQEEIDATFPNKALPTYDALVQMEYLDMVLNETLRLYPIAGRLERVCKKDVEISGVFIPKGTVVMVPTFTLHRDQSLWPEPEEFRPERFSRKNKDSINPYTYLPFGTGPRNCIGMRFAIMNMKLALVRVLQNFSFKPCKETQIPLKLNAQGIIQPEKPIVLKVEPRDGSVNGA

C=C(C)[C@@H]1CCC(C)=C[C@H]1c1c(O)cc(CCCCC)cc1O [CBD, cannabidiol]
pIC50 (CYP3A12): > 6.00
time-dependent inhibition (TDI) (CYP3A12; CYP3A12, no preincubation vs 20 min preincubation, 10 μM): showed time-dependent inhibition (TDI)
percent trypan blue positive cells (D17 cells; 3.75 μg/mL CBD): 4±2%
percent trypan blue positive cells (D17 cells; 7.5 μg/mL CBD): 5±2%
percent trypan blue positive cells (D17 cells; 15 μg/mL CBD): 35±4%
pIC50 (CYP2B11): > 6.00
time-dependent inhibition (TDI) (CYP2B11; CYP2B11, no preincubation vs 20 min preincubation, 10 μM): showed time-dependent inhibition (TDI)

Reference: patent US20240075087A1, “COMPOSITIONS AND METHODS COMPRISING HEMP EXTRACT FOR THE TREATMENT OF ANIMALS IN NEED” (Portland Technology Holdings LLC, priority 2021, published 2024)
